Assay results taken from patent US20230167064A1, “TREATMENTS OF INFLAMMATORY BOWEL DISEASE” (Aqilion AB, priority 2020, published 2023).
Entries after “also recorded” stand apart in the source; their conditions may differ.

How the values were obtained:
[1] = tested on: DSS model of Ulcerative Colitis using C57Bl/6 mice; experiment: DSS model of Ulcerative Colitis in mice; assay type: in vivo; details: 1 mg/kg daily oral, vs vehicle (and anti-TNFα antibody); for colitis clinical score: suspension in CMC-Na 2%, Day 9; for colon length: Day 10, experiment termination
Procedure: Ulcerative Colitis was modelled in C57Bl/6 mice by administering Dextran Sulphate Sodium (DSS) in drinking water (1.5% w/v) for 5 days. Mice were monitored daily for weight loss and clinical symptoms of disease for 10 days starting at the beginning of DSS administration.
The length and weight of the colon were also assessed.
Compared to naïve animals, animals given DSS water developed clinical signs of disease including weight loss and diarrhoea as well as gross pathological signs of disease on experiment termination. […] Shortened length and increased weight:length ratio indicates edema associated with ulcerative colitis.

[2] = tested on: CD4+ adoptive transfer induced inflammatory bowel disease in mice; experiment: CD4+ adoptive transfer induced inflammatory bowel disease in mice; assay type: in vivo, Fox Chase C.B-17 SCID mice; details: 1 mg/kg daily, day 21 to 49; for inhibition of inflammation/edema associated with inflammatory bowel disease (anti-inflammatory effect in colon): Potassium Salt
Procedure: The efficacy of Example compound 2 in inhibiting inflammation/edema associated with inflammatory bowel disease was evaluated in a CD4+ adoptive transfer induced inflammatory bowel disease in mice.
Species/Strain or Breed: Fox Chase C.B-17 SCID & Balb/C
On study day −1, SCID mice were weighed and evenly distributed into treatment groups based on body weight.
On study day 0, Balb/C mice were terminated, and spleens obtained for CD4^+CD45RB^high cell isolation (Using SCID IBD Cell Separation Protocol). After cells were sorted and obtained, each animal in the treatment groups received an IP injection of CD4^+CD45RB^high cells at a minimum 4×10^5 cells (200 μl/mouse injections). A naïve group of mice was followed through the experiment without receiving the injection of cells. The naïve group comprised 5 animals.
On study day 21, treatment with Example compound 2 (1 mg/kg, daily day 21 to 49) was initiated. The compound was formulated as a 0.1 mg/mL suspension with sodium carboxymethyl cellulose (1%, w/v). Mice received either Example compound 2 or vehicle. Each of those groups comprised 10 animals.
On study day 49, animals were anesthetized with Isoflurane and bled to exsanguination followed by cervical dislocation. The entire colon was removed, measured, and weighed. The colon was analysed for its level of interferon-γ and IL-22. The inflammation in the colons was also scored by visual and histopathological assessments.

[3] = In vivo pharmacokinetic study in rats; design: species or system Sprague Dawley rats; details: 1 mg/kg oral, rat plasma
Procedure: An in vivo pharmacokinetic study in rats was performed to determine if Example compound 2 can be absorbed and detected systemically after oral dosing. 4 male Sprague Dawley rats, approximately 225 g-250 g at dosing were dosed with 1 mg/kg of Example compound 2 formulated as a 0.1 mg/mL suspension with sodium carboxymethyl cellulose (1%, w/v). Blood samples were taken at 15 min, 30 min, 1 h, 2 h, 4 h, 6 h, 8 h and 24 h post dose At each blood sampling approximately 250 μL blood was sampled in K3EDTA vials and approximately 100 μL plasma was also prepared. The plasma samples were prepared by mixing 50 μL plasma with 250 μL of internal standard solution (20 ng/mL of phenacetin in ACN with 1% formic acid), mixed and centrifuged (20 min, 4000 rpm). Plasma samples were transferred to Waters Ostro 96-well plate and drawn through the plate by applying 6-8 psi positive pressure for 10 min. 100 μL of supernatant was further diluted with 50 μL UP water and sample was submitted to analysis. The standard and QC samples were prepared into blank rat colon homogenate and blank rat plasma. Standards were spiked into concentrations 0.1-10000 ng/mL of the analytes, QC samples into 3, 30, 300 and 3000 ng/mL, and were otherwise treated as samples.

[4] = tested on: aryl hydrocarbon receptor (AhR); experiment: Activation of AhR in colon of mice after oral dosing (qPCR of CYP1A1); assay type: in vivo, C57Bl/6 mice; details: for Colon CYP1A1 (fold change over untreated) Mean / Liver CYP1A1 (fold change over untreated) Mean: day 14; for Colon CYP1A1 (fold change over untreated) Mean: qPCR normalized to GAPDH & ACTB
Procedure: The potential of Example compound 2 to activate the aryl hydrocarbon receptor (AhR) in the colon following oral administration was evaluated in a wild-type (WT) mice.
Species/Strain or Breed: C57Bl/6
On study day 0, animals were weighed and evenly distributed into treatment groups based on body weight. On study day 14, animals were asphyxiated via CO2 inhalation followed by cervical dislocation. The entire colon was removed, collected and prepared for qPCR analysis of CYP1A1 (Normalized to GAPDH & ACTB).
The Example compound 2 was formulated as a 0.1 mg/ml, 0.01 mg/ml or 0.001 mg/ml suspension with sodium carboxymethyl cellulose (1%, w/v).

[5] = tested on: Crohn's Disease; details: reported in D'Haens et al. 2015 and WO 2011/014255; cited from earlier work

## Cn1c(=O)c(C(=O)Nc2ccccc2)c(O)c2c(Cl)cccc21 [Example compound 1, 5-chloro-4-hydroxy-1-methyl-2-oxo-N-phenyl-quinoline-3-carboxamide]
[1]
  colitis clinical score: significant reduction in colitis clinical score; also recorded: lower colitis score
  colon length: significant increase in colon length; also recorded: greater colon length
  body weight change (% change from day 1 of experiment), weight loss: reduced weight loss
[1]; listed as DELAQ
  colitis clinical score: protective effect against the development of the clinical symptoms of Ulcerative Colitis
  colon length: effective at reducing colon shortening

## Cn1c(=O)c(C(=O)Nc2ccccc2)c(O)c2c(Cl)cccc21.[K] [Example compound 2, 5-chloro-4-hydroxy-1-methyl-2-oxo-N-phenyl-quinoline-3-carboxamide Potassium Salt]
[2]
  inhibition of inflammation/edema associated with inflammatory bowel disease (anti-inflammatory effect in colon): local anti-inflammatory effect in the colon
[2]; colon at day 49, vs vehicle
  colon level of inflammatory markers (interferon-γ and IL-22): lower levels of inflammatory markers
[2]; day 49, vs vehicle
  inflammation in the colons scored by visual and histopathological assessments: fewer signs of inflammation
[2]; listed as potassium salt of DELAQ
  inhibition of inflammation/edema associated with inflammatory bowel disease (anti-inflammatory effect in colon): effective in inhibiting inflammation/edema
[2]; vs vehicle
  body weight (weight loss): less weight loss
[3]
  clearance from plasma: rapidly cleared
[3]; 15 min to 24 h post dose
  level in the plasma after oral dosing: detected in the plasma
[4]; 0.01 mg/kg PO QD D0-13
  Colon CYP1A1 (fold change over untreated) Mean: 1.03 fold change over untreated
  Liver CYP1A1 (fold change over untreated) Mean: 1.08 fold change over untreated
[4]; 0.1 mg/kg PO QD D0-13
  Colon CYP1A1 (fold change over untreated) Mean: 7.42 fold change over untreated
  Liver CYP1A1 (fold change over untreated) Mean: 2.81 fold change over untreated
[4]; 1.0 mg/kg PO QD D0-13
  Colon CYP1A1 (fold change over untreated) Mean: 8.34 fold change over untreated
  Liver CYP1A1 (fold change over untreated) Mean: 3.44 fold change over untreated
[4]; 1.0 and 0.1 mg/kg oral, WT mice
  CYP1A1 mRNA expression compared to untreated animals (AhR activation): significant increase in CYP1A1 mRNA expression
[4]; oral, increase in liver CYP1A1 lower than in colon
  AhR activating effect, colon versus liver CYP1A1 increase: local AhR activating effect

## CCN(C(=O)c1c(O)c2c(Cl)cccc2n(C)c1=O)c1ccccc1 [laquinimod]
[5]
  benefit in treatment of Crohn's Disease: beneficial for the treatment of Crohn's Disease
